Our source for the IC50 and percent degradation of TPM3-TRKA protein values is patent US12410171B2, “Tropomyosin receptor kinase (TRK) degradation compounds and methods of use” (Cullgen (Shanghai), Inc., priority 2020, dated 2025).

Broadly, the IC50 is the concentration at which inhibition is half-maximal.

SMILES strings stand for the structures. Where two headings read alike, the source gives them in different places.

One assay concerns KM12 cells. Nature of the assay: KM12 cell viability (CellTiter-Glo). The class given is cell-based. Conditions: Homo sapiens. The gist of the method: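 KM12 cells seeded at 5000 per well in RPMI 1640 + 10% FBS and exposed 3 days to serial dilutions (11-point 3-fold, 8-point 3-fold from 1000 nM, or 12-point 2-fold). Viability by CellTiter-Glo; IC50 from least-squares nonlinear regression.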
(Cellular ATP, detected with luciferase, serves as a proxy for viable cell number.)

A further assay has as its target T1, TPM3-TRKA fusion protein (Homo sapiens, UniProt P04629).
T1 construct: The resulted chimeric proteins always retain the kinase domain of TRK proteins; TPM3 (fusion partner, N-terminal part of tropomyosin alpha-3, P06753); endogenous in cells; host or cells: KM12 colon cancer cells; the other entry of the earlier key: TPM3 (P06753, Tropomyosin alpha-3 chain)
Nature of the assay: TPM3-TRKA fusion protein levels in KM12 cells (Western blot). The conditions noted are these: read-out: Degradation (at 10 nM). The class given is cell-based. In short, it runs like this: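 KM12 colon cancer cells were treated with DMSO or compounds at 0.1–100 nM, 0.4–30 nM or other stated concentrations for 4, 8–16 or 16 h. RIPA lysates were BCA-normalized and resolved by SDS-PAGE. TPM3-TRKA was detected by chemiluminescent Western blot, with bands quantified by densitometry.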

The mark [1] stands for this setting: 72 h, KM12 cell viability, CellTiter-Glo, three days treatment, read-out: IC50.
The mark [2] stands for this setting: 16 h, TPM3-TRKA degradation in KM12 cells at 10 nM compound, category of percentage degradation.

T1 sequence (P04629 with tags, fused parts or gaps): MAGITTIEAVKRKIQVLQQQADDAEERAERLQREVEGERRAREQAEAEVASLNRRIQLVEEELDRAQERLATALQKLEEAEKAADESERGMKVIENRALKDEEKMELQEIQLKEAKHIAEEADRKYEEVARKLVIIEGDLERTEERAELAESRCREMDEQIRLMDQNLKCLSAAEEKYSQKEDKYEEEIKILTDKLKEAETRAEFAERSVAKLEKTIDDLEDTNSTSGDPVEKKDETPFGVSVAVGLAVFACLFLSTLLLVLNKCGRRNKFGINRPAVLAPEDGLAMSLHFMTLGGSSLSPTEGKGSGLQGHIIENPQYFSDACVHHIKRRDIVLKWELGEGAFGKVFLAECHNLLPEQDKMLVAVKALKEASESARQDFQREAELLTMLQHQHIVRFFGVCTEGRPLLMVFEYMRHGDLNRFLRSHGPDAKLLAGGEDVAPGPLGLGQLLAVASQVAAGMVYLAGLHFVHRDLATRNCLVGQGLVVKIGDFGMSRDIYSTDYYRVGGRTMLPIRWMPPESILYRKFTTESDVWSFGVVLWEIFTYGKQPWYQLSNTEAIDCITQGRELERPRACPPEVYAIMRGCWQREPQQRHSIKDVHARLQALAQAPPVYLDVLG

`Cn1c(=O)n(C2CCC(=O)NC2=O)c2cccc(CCCCN3CCN(c4ccc(C(=O)Nc5n[nH]c6ccc(Cc7cc(F)cc(F)c7)cc56)c(NC5CCOCC5)c4)CC3)c21` (centres unmarked) [TR-304, N-(5-(3,5-difluorobenzyl)-1H-indazol-3-yl)-4-(4-(4-(1-(2,6-dioxopiperidin-3-yl)-3-methyl-2-oxo-2,3-dihydro-1H-benzo[d]imidazol-4-yl)butyl)piperazin-1-yl)-2-((tetrahydro-2H-pyran-4-yl)amino)benzamide]: the IC50 with KM12 cells (setting [1]) was 1.5 nM. The percent degradation of TPM3-TRKA protein at 0.01 µM at TPM3-TRKA fusion protein (setting [2]) was more than 80%.

As to `Cn1c(=O)n(C2CCC(=O)NC2=O)c2cccc(CCCN3CCN(c4ccc(C(=O)Nc5n[nH]c6ccc(Cc7cc(F)cc(F)c7)cc56)c(NC5CCOCC5)c4)CC3)c21` (centres unmarked) [TR-305, N-(5-(3,5˜Difluorobenzyl)-1H-indazol-3-yl)-4-(4-(3-(1-(2,6-dioxopiperidin-3-yl)-3-methyl-2-oxo-2,3-dihydro-1H-benzo[d]imidazol-4-yl)propyl)piperazin-1-yl)-2-((tetrahydro-2H-pyran-4-yl)amino)benzamide], in the assay on KM12 cells (setting [1]), the IC50 is 2.5 nM. For the same molecule, the percent degradation of TPM3-TRKA protein at 0.01 µM on TPM3-TRKA fusion protein (setting [2]) is more than 80%.

Consider `Cn1c(=O)n(C2CCC(=O)NC2=O)c2cccc(C#CCCN3CCN(c4ccc(C(=O)Nc5n[nH]c6ccc(Cc7cc(F)cc(F)c7)cc56)c(NC5CCOCC5)c4)CC3)c21` (centres unmarked) [TR-306, N-(5-(3,5-difluorobenzyl)-1H-indazol-3-yl)-4-(4-(4-(1-(2,6-dioxopiperidin-3-yl)-3-methyl-2-oxo-2,3-dihydro-1H-benzo[d]imidazol-4-yl)but-3-yn-1-yl)piperazin-1-yl)-2-((tetrahydro-2H-pyran-4-yl)amino)benzamide], for which the IC50 with KM12 cells (setting [1]) stood at 4 nM. For the same molecule, the percent degradation of TPM3-TRKA protein at 0.01 µM on TPM3-TRKA fusion protein (setting [2]) was more than 80%.

As for `O=C1CCC(N2C(=O)c3ccc(C4CN(C5CCN(c6cccc(-c7cnc8ccc(N9CCC[C@@H]9c9cccc(F)c9)nn78)n6)CC5)C4)cc3C2=O)C(=O)N1` (stereo partly drawn) [TR-308, 2-(2,6-dioxopiperidin-3-yl)-5-(1-(1-(6-(6-((R)-2-(3-fluorophenyl)pyrrolidin-1-yl)imidazo[1,2-b]pyridazin-3-yl)pyridin-2-yl)piperidin-4-yl)azetidin-3-yl)isoindoline-1,3-dione], the IC50 in the assay with KM12 cells (setting [1]) is 11.8 nM. The percent degradation of TPM3-TRKA protein at 0.01 µM on TPM3-TRKA fusion protein (KM12, 16 h) is more than 80%.

On to `O=C1CCC(N2Cc3ccc(C4CN(C5CCN(c6cccc(-c7cnc8ccc(N9CCC[C@@H]9c9cccc(F)c9)nn78)n6)CC5)C4)cc3C2=O)C(=O)N1` (stereo partly drawn) [TR-309, 3-(6-(1-(1-(6-(6-((R)-2-(3-fluorophenyl)pyrrolidin-1-yl)imidazo[1,2-b]pyridazin-3-yl)pyridin-2-yl)piperidin-4-yl)azetidin-3-yl)-1-oxoisoindolin-2-yl)piperidine-2,6-dione], for which, in the assay with KM12 cells (setting [1]), the IC50 was determined as 4.3 nM. Moreover, on TPM3-TRKA fusion protein (KM12, 16 h), the percent degradation of TPM3-TRKA protein at 0.01 µM lay within 50 to 80%.

On to `Cn1c(=O)n(C2CCC(=O)NC2=O)c2ccc(OCCN3CCN(c4ccc(C(=O)Nc5n[nH]c6ccc(Cc7cc(F)cc(F)c7)cc56)c(NC5CCOCC5)c4)CC3)cc21` (centres unmarked) [TR-314, N-(5-(3,5˜Difluorobenzyl)-1H-indazol-3-yl)-4-(4-(2-((1-(2,6-dioxopiperidin-3˜yl)-3-methyl-2-oxo-2,3-dihydro-1H-benzo[d]imidazol-5-yl)oxy)ethyl)piperazin-1-yl)-2-((tetrahydro-2H-pyran-4-yl)amino)benzamide], for which half-maximal inhibition in the assay with KM12 cells (KM12, 72 h) (IC50) was put at 213 nM. Also, at TPM3-TRKA fusion protein (KM12, 16 h), the percent degradation of TPM3-TRKA protein at 0.01 µM lay within 50 to 80%.

As for `Cn1c(=O)n(C2CCC(=O)NC2=O)c2cccc(NCCCN3CCN(c4ccc(C(=O)Nc5n[nH]c6ccc(Cc7cc(F)cc(F)c7)cc56)c(NC5CCOCC5)c4)CC3)c21` (stereo not drawn) [TR-315, N—(S-(3,5-difluorobenzyl)-1H-indazol-3-yl)-4-(4-(3-((1-(2,6-dioxopiperidin-3-yl)-3-methyl-2-oxo-2,3-dihydro-1H-benzo[d]imidazol-4-yl)amino)propyl)piperazin-1-yl)-2-((tetrahydro-2H-pyran-4-yl)amino)benzamide], the IC50 in the assay on KM12 cells (setting [1]) stood at 4.5 nM. Besides, the percent degradation of TPM3-TRKA protein at 0.01 µM on TPM3-TRKA fusion protein (setting [2]) was more than 80%.
